pIC50: −log10 of the molar value. Where two headings read alike, the source gives them in different places.
Target: human Cat S (Homo sapiens (Human), UniProt P25774)
Test: Cathepsin enzyme inhibition assay (fluorogenic peptide substrate)
Type: biochemical
Settings: read-out: CatS IC50
Method: Cathepsin Enzyme Inhibition Assay
Enzyme activity is measured by observing the increase in fluorescence intensity caused by cleavage of a peptide substrate containing a fluorophore whose emission is quenched in the intact peptide.
Assay buffer: 100 mM potassium phosphate pH 6.5, EDTA-Na 5 mM, Triton X-100 0.001%, DTT 5 mM.
Enzymes (all at 1 nM): human and mouse Cathepsin S, Cat K, Cat B, Cat L.
Substrate ([…], except for Cat K which uses Z-Leu-Arg-AMC (both from Bachem).
Excitation 360 nm, Emission 465 nm.
Enzyme is added to the substance dilutions in 96-well microtitre plates and the reaction is started with substrate. […] IC50 are calculated by standard methods.
Inhibition of human Cat S, mouse Cat S, human Cat K, mouse Cat K, human Cat B, mouse Cat B, human Cat L and mouse Cat L have been measured separately.

[1] = human Cat S, enzyme 1 nM, substrate Z-Val-Val-Arg-AMC, pH 6.5

Chain of human Cat S (P25774 115-331): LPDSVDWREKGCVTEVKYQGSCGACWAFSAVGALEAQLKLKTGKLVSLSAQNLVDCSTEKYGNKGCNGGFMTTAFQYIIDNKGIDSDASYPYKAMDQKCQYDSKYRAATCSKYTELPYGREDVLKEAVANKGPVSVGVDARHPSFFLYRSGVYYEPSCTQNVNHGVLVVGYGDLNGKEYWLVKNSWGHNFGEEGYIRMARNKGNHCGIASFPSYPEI

## CCn1c(=O)n(C2CCN(Cc3nc(-c4ccc(C(F)(F)F)cc4)[nH]c3C)CC2)c2ccc(Cl)cc21 [Example 26, 5-Chloro-3-ethyl-1-{1-[5-methyl-2-(4-trifluoromethyl-phenyl)-1H-imidazol-4-ylmethyl]-piperidin-4-yl}-1,3-dihydro-benzoimidazol-2-one]
[1]
  pIC50: 6.82

## COCCc1[nH]c(-c2ccc(C(F)(F)F)cc2)nc1CN1CCC(c2c[nH]c3ccncc23)CC1 [Example 61, 3-{1-[5-(2-Methoxy-ethyl)-2-(4-trifluoromethyl-phenyl)-1H-imidazol-4-ylmethyl]-piperidin-4-yl}-1H-pyrrolo[3,2-c]pyridine]
[1]
  pIC50: 5.71

## Cc1[nH]c(-c2ccc(C(F)(F)F)c(Cl)c2)nc1CN1CCC(n2c(=O)n(C)c3ccccc32)CC1 [Example 39, 1-{1-[2-(3-Chloro-4-trifluoromethyl-phenyl)-5-methyl-1H-imidazol-4-ylmethyl]-piperidin-4-yl}-3-methyl-1,3-dihydro-benzoimidazol-2-one]
[1]
  pIC50: 6.62

## Cc1nc(-c2ccc(C(F)(F)F)cc2)[nH]c1CN1CCC(n2cc(-c3ccc(Br)cc3)[nH]c2=O)CC1 [Example 12, 5-(4-Bromophenyl)-3-[1-[[4-methyl-2-[4-(trifluoromethyl)phenyl]-1H-imidazol-5-yl]methyl]-4-piperidyl]-1H-imidazol-2-one]
[1]
  pIC50: 6.23

## Cc1[nH]c(-c2ccc(C(F)(F)F)cc2)nc1CN1CCC(n2c(=O)n(CC(N)=O)c3cc(Cl)ccc32)CC1 [Example 31, 2-(6-Chloro-3-{1-[5-methyl-2-(4-trifluoromethyl-phenyl)-1H-imidazol-4-ylmethyl]-piperidin-4-yl}-2-oxo-2,3-dihydro-benzoimidazol-1-yl)-acetamide]
[1]
  pIC50: 6.51

## Cc1[nH]c(-c2ccc(C(F)(F)F)cc2)nc1CN1CCC(N2C(=O)Cc3cc(Cl)ccc32)CC1 [Example 43, 5-Chloro-1-{1-[5-methyl-2-(4-trifluoromethyl-phenyl)-1H-imidazol-4-ylmethyl]-piperidin-4-yl}-1,3-dihydro-indol-2-one]
  pIC50: 6.35

## Cc1[nH]c(-c2ccc(C(F)(F)F)cc2)nc1CN1CCC(c2c[nH]c3ccccc23)CC1 [Example 36, 3-{1-[5-Methyl-2-(4-trifluoromethyl-phenyl)-1H-imidazol-4-ylmethyl]-piperidin-4-yl}-1H-indole]
[1]
  pIC50: 6.11

## Cc1[nH]c(-c2ccc(C(F)(F)F)cc2Cl)nc1CN1CCC(N2Cc3ccccc3NC2=O)CC1 [Example 59, 3-{1-[2-(2-Chloro-4-trifluoromethyl-phenyl)-5-methyl-1H-imidazol-4-ylmethyl]-piperidin-4-yl}-3,4-dihydro-1H-quinazolin-2-one]
[1]
  pIC50: 6.55

## Cc1[nH]c(-c2ccc(Cl)c(Cl)c2)nc1CN1CCC(N2Cc3ccccc3NC2=O)CC1 [Example 42, 3-{1-[2-(3,4-Dichloro-phenyl)-5-methyl-1H-imidazol-4-ylmethyl]-piperidin-4-yl}-3,4-dihydro-1H-quinazolin-2-one]
[1]
  pIC50: 6.54

## Cc1[nH]c(-c2ccc(C(F)(F)F)cc2)nc1CN1CCC(c2c[nH]c3ncccc23)CC1 [Example 38, 3-{1-[5-Methyl-2-(4-trifluoromethyl-phenyl)-1H-imidazol-4-ylmethyl]-piperidin-4-yl}-1H-pyrrolo[2,3-b]pyridine]
[1]
  pIC50: 6.33

## Cc1[nH]c(-c2ccc(C(F)(F)F)cc2)nc1CN1CCC(n2cnc3ccccc32)CC1 [Example 3, 1-{1-[5-Methyl-2-(4-trifluoromethyl-phenyl)-1H-imidazol-4-ylmethyl]-piperidin-4-yl}-1H-benzoimidazole]
[1]
  pIC50: 6.35

## Cc1[nH]c(-c2ccc(C(F)(F)F)cc2)nc1CN1CCC(N2C(=O)COc3ccccc32)CC1 [Example 19, 4-{1-[5-Methyl-2-(4-trifluoromethyl-phenyl)-1H-imidazol-4-ylmethyl]-piperidin-4-yl}-4H-benzo[1,4]oxazin-3-one]
  pIC50: 6.33

## Cc1[nH]c(-c2ccc(C(F)(F)F)c(F)c2)nc1CN1CCC(n2c(=O)n(C)c3ccccc32)CC1 [Example 44, 1-{1-[2-(3-Fluoro-4-trifluoromethyl-phenyl)-5-methyl-1H-imidazol-4-ylmethyl]-piperidin-4-yl}-3-methyl-1,3-dihydro-benzoimidazol-2-one]
[1]
  pIC50: 6.41

## Cc1[nH]c(-c2ccc(C(F)(F)F)cc2)nc1CN1CCC(n2c(=O)[nH]c3ccc(N4CCN(C)CC4)cc32)CC1 [Example 11, 6-(4-Methyl-piperazin-1-yl)-1-{1-[5-methyl-2-(4-trifluoromethyl-phenyl)-1H-imidazol-4-ylmethyl]-piperidin-4-yl}-1,3-dihydro-benzoimidazol-2-one]
[1]
  pIC50: 6.34

## Cc1[nH]c(-c2ccc(C(F)(F)F)cc2)nc1CN1CCC(N2Cc3ccc(F)cc3NC2=O)CC1 [Example 25, 7-Fluoro-3-{1-[5-methyl-2-(4-trifluoromethyl-phenyl)-1H-imidazol-4-ylmethyl]-piperidin-4-yl}-3,4-dihydro-1H-quinazolin-2-one]
[1]
  pIC50: 6.74

## Cc1[nH]c(-c2ccc(C(F)(F)F)cc2)nc1CN1CCC(n2c(=O)n(CCO)c3cc(Cl)ccc32)CC1 [Example 30, 5-Chloro-3-(2-hydroxy-ethyl)-1-{1-[5-methyl-2-(4-trifluoromethyl-phenyl)-1H-imidazol-4-ylmethyl]-piperidin-4-yl}-1,3-dihydro-benzoimidazol-2-one]
[1]
  pIC50: 6.64

## Cc1[nH]c(-c2ccc(S(=O)(=O)CC(C)C)cc2)nc1CN1CCC(N2Cc3ccccc3NC2=O)CC1 [Example 78, 3-(1-{5-Methyl-2-[4-(2-methyl-propane-1-sulfonyl)-phenyl]-1H-imidazol-4-ylmethyl}-piperidin-4-yl)-3,4-dihydro-1H-quinazolin-2-one]
[1]
  pIC50: 5.97

## Cc1[nH]c(-c2ccc(C(F)(F)F)c(Cl)c2)nc1CN1CCC(N2Cc3ccccc3NC2=O)CC1 [Example 40, 3-{1-[2-(3-Chloro-4-trifluoromethyl-phenyl)-5-methyl-1H-imidazol-4-ylmethyl]-piperidin-4-yl}-3,4-dihydro-1H-quinazolin-2-one]
[1]
  pIC50: 7.11

## Cc1[nH]c(-c2ccc(S(=O)(=O)CC(C)C)cc2)nc1CN1CCC(n2c(=O)n(C)c3ccccc32)CC1 [Example 79, 1-Methyl-3-(1-{5-methyl-2-[4-(2-methyl-propane-1-sulfonyl)-phenyl]-1H-imidazol-4-ylmethyl}-piperidin-4-yl)-1,3-dihydro-benzoimidazol-2-one]
[1]
  pIC50: 5.54

## Cc1[nH]c(-c2ccc(S(=O)(=O)Cc3ccccc3)cc2)nc1CN1CCC(N2Cc3ccccc3NC2=O)CC1 [Example 80, 3-{1-[5-Methyl-2-(4-phenylmethanesulfonyl-phenyl)-1H-imidazol-4-ylmethyl]-piperidin-4-yl}-3,4-dihydro-1H-quinazolin-2-one]
[1]
  pIC50: 7.00

## Cc1nc(-c2ccc(C(F)(F)F)cc2)[nH]c1CN1CCC(N2CCCCC2=O)CC1 [Example 8, 1-[1-[[4-Methyl-2-[4-(trifluoromethyl)phenyl]-1H-imidazol-5-yl]methyl]-4-piperidyl]piperidin-2-one]
[1]
  pIC50: 5.48

## Cc1[nH]c(-c2ccc(C(F)(F)F)cc2)nc1CN1CCC(N2C(=O)Cc3ccccc32)CC1 [Example 2, 1-{1-[5-Methyl-2-(4-trifluoromethyl-phenyl)-1H-imidazol-4-ylmethyl]-piperidin-4-yl}-1,3-dihydro-indol-2-one]
  pIC50: 6.11

## COCCn1c(-c2ccc(C(F)(F)F)cc2)nc(CN2CCC(N3Cc4ccccc4NC3=O)CC2)c1C [Example 76, 3-{1-[1-(2-Methoxy-ethyl)-5-methyl-2-(4-trifluoromethyl-phenyl)-1H-imidazol-4-ylmethyl]-piperidin-4-yl}-3,4-dihydro-1H-quinazolin-2-one]
[1]
  pIC50: 6.50

## Cc1[nH]c(-c2ccc(C(F)(F)F)cc2Cl)nc1CN1CCC(n2c(=O)n(C)c3ccccc32)CC1 [Example 60, 1-{1-[2-(2-Chloro-4-trifluoromethyl-phenyl)-5-methyl-1H-imidazol-4-ylmethyl]-piperidin-4-yl}-3-methyl-1,3-dihydro-benzoimidazol-2-one]
[1]
  pIC50: 6.04

## Cc1c(CN2CCC(N3Cc4ccccc4NC3=O)CC2)nc(-c2ccc(C(F)(F)F)cc2)n1C [Example 71, 3-{1-[1,5-Dimethyl-2-(4-trifluoromethyl-phenyl)-1H-imidazol-4-ylmethyl]-piperidin-4-yl}-3,4-dihydro-1H-quinazolin-2-one]
[1]
  pIC50: 7.08

## Cc1[nH]c(-c2ccc(C(F)(F)F)c(Cl)c2)nc1CN1CCC(c2c[nH]c3ncccc23)CC1 [Example 46, 3-{1-[2-(3-Chloro-4-trifluoromethyl-phenyl)-5-methyl-1H-imidazol-4-ylmethyl]-piperidin-4-yl}-1H-pyrrolo[2,3-b]pyridine]
[1]
  pIC50: 6.52

## CCCc1[nH]c(-c2ccc(C(F)(F)F)cc2)nc1CN1CCC(N2Cc3ccccc3NC2=O)CC1 [Example 62, 3-{1-[5-Propyl-2-(4-trifluoromethyl-phenyl)-1H-imidazol-4-ylmethyl]-piperidin-4-yl}-3,4-dihydro-1H-quinazolin-2-one]
[1]
  pIC50: 6.52

## Cc1[nH]c(-c2ccc(C(F)(F)F)cc2)nc1CN1CCC(c2noc3cc(F)ccc23)CC1 [Example 37, 6-Fluoro-3-{1-[5-methyl-2-(4-trifluoromethyl-phenyl)-1H-imidazol-4-ylmethyl]-piperidin-4-yl}-benzo[d]isoxazole]
[1]
  pIC50: 6.23

## COCCc1[nH]c(-c2ccc(C(F)(F)F)cc2)nc1CN1CCC(N2Cc3ccccc3NC2=O)CC1 [Example 55, 3-{1-[5-(2-Methoxy-ethyl)-2-(4-trifluoromethyl-phenyl)-1H-imidazol-4-ylmethyl]-piperidin-4-yl}-3,4-dihydro-1H-quinazolin-2-one]
[1]
  pIC50: 6.46

Source: patent publication US10172843B2, “Piperidine derivatives” (Hoffmann-La Roche Inc., priority 2014, dated 2019)
